In the NIST ThermoML archive (doi:10.1016/j.tca.2011.08.002):

Assay: xn = mol fraction of the nth substance listed
Details: 101 kPa, Liquid, Vibrating tube method

C1CCC(NC2CCCCC2)CC1 [N-cyclohexylcyclohexanamine] + CCCCCO
mass density [kg/m3]
Details	288.15 K	293.15 K	298.15 K	303.15 K	308.15 K	313.15 K	318.15 K	323.15 K
x2 = 0	915.498	911.705	907.923	904.144	900.372	896.608	892.847	889.089
x2 = 0.0525	913.936	910.13	906.333	902.538	898.746	894.957	891.168	887.381
x2 = 0.1	912.365	908.547	904.733	900.921	897.111	893.301	889.492	885.679
x2 = 0.2006	908.415	904.561	900.708	896.855	893.001	889.146	885.287	881.423
x2 = 0.2999	903.722	899.824	895.929	892.033	888.135	884.235	880.327	876.412
x2 = 0.3985	898.063	894.123	890.185	886.249	882.309	878.364	874.411	870.446
x2 = 0.5001	890.925	886.952	882.98	879.007	875.031	871.049	867.056	863.048
x2 = 0.5999	882.166	878.178	874.191	870.203	866.208	862.207	858.189	854.154
x2 = 0.6992	871.226	867.264	863.3	859.33	855.348	851.354	847.34	843.305
x2 = 0.7993	857.281	853.399	849.507	845.602	841.678	837.734	833.766	829.767
x2 = 0.8997	839.76	835.998	832.22	828.423	824.599	820.749	816.864	812.943
x2 = 0.9495	829.611	825.915	822.199	818.461	814.694	810.896	807.06	803.186
